Laboratory results from ChEMBL document CHEMBL1137981, “Identification and specificity studies of small-molecule ligands for SH3 protein domains” (J Med Chem, 2004).

Target: T1, Tyrosine-protein kinase TEC (Mus musculus, UniProt Q8CFK4)
T1 sequence (Q8CFK4 whole entry): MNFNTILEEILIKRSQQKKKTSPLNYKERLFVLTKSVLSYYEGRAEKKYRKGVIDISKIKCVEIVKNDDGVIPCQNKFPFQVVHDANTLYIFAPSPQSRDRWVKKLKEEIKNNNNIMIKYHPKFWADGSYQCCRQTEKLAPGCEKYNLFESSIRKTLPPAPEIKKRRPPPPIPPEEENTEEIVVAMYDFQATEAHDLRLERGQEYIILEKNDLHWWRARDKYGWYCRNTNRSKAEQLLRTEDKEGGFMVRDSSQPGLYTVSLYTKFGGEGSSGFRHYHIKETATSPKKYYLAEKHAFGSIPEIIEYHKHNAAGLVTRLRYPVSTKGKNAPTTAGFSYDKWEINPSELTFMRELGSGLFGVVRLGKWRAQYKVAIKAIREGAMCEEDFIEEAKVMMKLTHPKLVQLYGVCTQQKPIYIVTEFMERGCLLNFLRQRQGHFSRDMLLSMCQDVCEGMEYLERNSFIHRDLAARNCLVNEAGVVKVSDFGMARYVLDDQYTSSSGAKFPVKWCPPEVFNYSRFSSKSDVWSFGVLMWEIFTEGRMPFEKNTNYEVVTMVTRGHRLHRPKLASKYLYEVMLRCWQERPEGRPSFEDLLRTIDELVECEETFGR
Experiment: Binding affinity to mouse Tec kinase SH3 domain by NMR chemical shift perturbation; No binding; call rule not given here

Row | Structure (SMILES) | Kd
1 | O=c1ccc2ccccc2[nH]1 | Not Active
2 | CC(=O)Nc1ccc2ccccc2n1 | Not Active
3 | Nc1ccc2ccccc2c1 [NAPHTHYLAMINE] | Not Active
4 | c1ccc2ncccc2c1 [QUINOLINE] | Not Active

Target: SH2/SH3 adapter protein NCK1 (Homo sapiens, UniProt P16333)
Experiment: Displacement of PRP-1 peptide from human Nck […] SH3 domain by fluorescence polarization

Row | EC50 [µM] | Structure (SMILES)
5 | 90 | Cc1ccc2nc(N)ccc2c1
6 | 300 | Nc1ccc2cc(C3OCCO3)ccc2n1
7 | > 500 | Nc1ccc2cc(C3OCCCO3)ccc2n1

Target: T1, Tyrosine-protein kinase TEC
Experiment: Displacement of PRP-1 peptide from mouse Tec kinase SH3 domain by fluorescence polarization; No competition

Row | EC50 | Structure (SMILES)
8 | Not Active | Nc1ccc2cccc(O)c2n1

Target: T1, Tyrosine-protein kinase TEC
Experiment: Binding affinity to mouse Tec kinase SH3 domain by NMR chemical shift perturbation

Row | Structure (SMILES) | Kd [µM]
9 | CNc1ccc2ccccc2n1 | 380
10 | Nc1ccccn1 [2-AMINOPYRIDINE] | > 4000

Other lines, results leading:

Row | Kd [µM] | Structure (SMILES)
11 | 22 | CC1(C)COC(c2ccc3nc(N)ccc3c2)OC1
12 | 61 | Cc1ccc2nc(N)ccc2c1
13 | 40 | Nc1ccc2cc(C3OCCO3)ccc2n1
14 | 52 | Nc1ccc2cc(C3OCCCO3)ccc2n1

Target: T1, Tyrosine-protein kinase TEC
Experiment: Displacement of PRP-1 peptide from mouse Tec kinase SH3 domain by fluorescence polarization

Row | EC50 [µM] | Structure (SMILES)
15 | 150 | Nc1ccc2cc(F)ccc2n1
16 | 63 | COc1ccc2nc(N)ccc2c1
17 | 58 | Nc1ccc2cc(Br)ccc2n1
18 | 76 | Nc1ccc2cc(Cl)ccc2n1
19 | 75 | Cc1ccc2nc(N)ccc2c1
20 | 34 | Nc1ccc2cc(C3OCCO3)ccc2n1
21 | 26 | Nc1ccc2cc(C3OCCCO3)ccc2n1

Target: T1, Tyrosine-protein kinase TEC
Experiment: Binding affinity to mouse Tec kinase SH3 domain by NMR chemical shift perturbation; No binding
Remark: another data set of the same source

Row | Kd | Structure (SMILES)
22 | Not Active | Nc1ncccn1

Test system: not listed separately
Experiment: Ionization constant (pKa) for the compound
Format: physicochemical

Row | pKa | Structure (SMILES)
23 | 4.82 | Nc1ncc2ccccc2n1
24 | 3.54 | Nc1ncccn1
